# Like-named read-outs stand apart in the source and are kept apart here.
# Test system: T. brucei lysate proteins
# Format: binding, Trypanosoma brucei
smiles,measurement,setting,value
Nc1nc2cccc(-c3ccccc3)c2n1Cc1ccc(Cl)c(Cl)c1 [compound 3],fold change - vehicle control,"protein TB927.7.5340 HY[…], CONSERVED",0.45
same,fold change - vehicle control,"protein TB927.7.7430 ATP SYNTHASE ALPHA CHAIN, MIT[…]",0.95
same,fold change - vehicle control,protein TB927.8.1990 PEROXIDOXIN,0.95
same,fold change - vehicle control,"protein TB927.8.4720 AMINO ACID TRANSPORTER, PUTATIVE",0.82
same,fold change - vehicle control,"protein TB927.8.890 SMALL GTP-BINDING PROTEIN RAB1, PUTATIVE",0.96
same,fold change,"relative to vehicle control = 1, protein TB09.160.2550 RIBOSOMAL PROTEIN S7, PUTATIVE",0.97
same,fold change,"relative to vehicle control = 1, protein TB09.160.3270 ATP-DEPENDENT DEAD BOX HELICASE, PUTATIVE",1
same,fold change,"relative to vehicle control = 1, protein TB09.160.4250 TR[…]",0.95
same,fold change,"relative to vehicle control = 1, protein TB09.211.3540 GLYCEROL KINASE, GLYCOSOMAL",0.92
same,fold change,"relative to vehicle control = 1, protein TB11.01.1270 NUCLEIC ACID BINDING PROTEIN, PUTATIVE",0.99
same,fold change,"relative to vehicle control = 1, protein TB11.02.1135 DYNEIN LIGHT CHAIN, PUTATIVE",1
same,fold change,"relative to vehicle control = 1, protein TB11.02.2960 MIT[…] PROTEIN, PUTATIVE",0.96
same,fold change,"relative to vehicle control = 1, protein TB11.02.4700 14-3-3 PROTEIN",0.87
same,fold change,"relative to vehicle control = 1, protein TB11.03.0815 DYNEIN LIGHT CHAIN",0.99
same,fold change,"relative to vehicle control = 1, protein TB427TMP.01.0480 HY[…], CONSERVED",0.95
same,fold change,"relative to vehicle control = 1, protein TB427TMP.01.1400 GLYCYL-TRNA SYNTHETASE, PUTATIVE",0.9
same,fold change,"relative to vehicle control = 1, protein TB427TMP.01.1680 POLYUBIQUITIN, PUTATIVE",0.93
same,fold change,"relative to vehicle control = 1, protein TB427TMP.01.1830 HY[…], CONSERVED",1
same,fold change,"relative to vehicle control = 1, protein TB427TMP.01.3370 […] PROTEIN, PUTATIVE",0.94
same,fold change,"relative to vehicle control = 1, protein TB427TMP.01.6880 CYTOSOLIC COAT PROTEIN, PUTATIVE",0.81
same,fold change,"relative to vehicle control = 1, protein TB427TMP.01.7530 HY[…], CONSERVED",0.93
same,fold change,"relative to vehicle control = 1, protein TB427TMP.02.1120 ADENYL[…], PUTATIVE",0.99
same,fold change,"relative to vehicle control = 1, protein TB427TMP.02.1460 HY[…], CONSERVED",0.95
same,fold change,"relative to vehicle control = 1, protein TB427TMP.02.2120 NUCLEOPORIN 48",0.94
same,fold change,"relative to vehicle control = 1, protein TB427TMP.02.2970 KINESIN, PUTATIVE",0.91
same,fold change,"relative to vehicle control = 1, protein TB427TMP.02.3120 MALIC ENZYME, PUTATIVE",0.82
same,fold change,"relative to vehicle control = 1, protein TB427TMP.02.4550 HY[…], CONSERVED",1
same,fold change,"relative to vehicle control = 1, protein TB427TMP.02.5450 GLUCOSE-REGULATED PROTEIN 78, PUTATIVE",0.93
same,fold change,"relative to vehicle control = 1, protein TB427TMP.03.0090 RIBOKINASE, PUTATIVE",0.84
same,fold change,"relative to vehicle control = 1, protein TB427TMP.160.4770 PROTEIN KINASE, PUTATIVE",0.93
same,fold change,"relative to vehicle control = 1, protein TB427TMP.160.4910 FLAVOPROTEIN MONOOXYGENASE, PUTATIVE",0.97
same,fold change,"relative to vehicle control = 1, protein TB427TMP.18.0005 HY[…], CONSERVED",0.93
same,fold change,"relative to vehicle control = 1, protein TB427TMP.22.0004 HY[…], CONSERVED",0.97
same,fold change,"relative to vehicle control = 1, protein TB427TMP.39.0006 T[…] EIF2B DELTA SUBUNIT, PUTATIVE",0.9
same,fold change,"relative to vehicle control = 1, protein TB427.01.4050 PROTEIN P[…] EF-HAND DOMAINS (PPEF)",0.93
same,fold change,"relative to vehicle control = 1, protein TB427.02.1170 RETRO[…] SPOT (RHS) PROTEIN, PUTATIVE",0.96
same,fold change,"relative to vehicle control = 1, protein TB427.02.6220 ADENOSINE TRANSPORTER 2, PUTATIVE",0.98
same,fold change,"relative to vehicle control = 1, protein TB427.03.3160 POLY(A) POLYMERASE",0.77
same,fold change,"relative to vehicle control = 1, protein TB427.03.3560 HY[…], CONSERVED",0.83
same,fold change,"relative to vehicle control = 1, protein TB427.03.5420 PROTEIN TRANSPORT PROTEIN SEC24",0.9
same,fold change,"relative to vehicle control = 1, protein TB427.04.1510 PHOSPHOLIPID-TRA[…], PUTATIVE",0.86
same,fold change,"relative to vehicle control = 1, protein TB427.05.2320 HY[…], CONSERVED",0.8
same,fold change,"relative to vehicle control = 1, protein TB427.05.300 THYMINE-7-HYDROXYLASE, PUTATIVE",0.82
same,fold change,"relative to vehicle control = 1, protein TB427.05.4530 FATTY ACID ELONGASE, PUTATIVE",0.77
same,fold change,"relative to vehicle control = 1, protein TB427.05.520 STOMATIN-LIKE PROTEIN, PUTATIVE",1
same,fold change,"relative to vehicle control = 1, protein TB427.06.2550 RNA-BINDING PROTEIN, PUTATIVE",1.2
same,fold change,"relative to vehicle control = 1, protein TB427.06.3650 ADP-RI[…], PUTATIVE",0.91
same,fold change,"relative to vehicle control = 1, protein TB427.06.3860 HY[…], CONSERVED",0.97
same,fold change,"relative to vehicle control = 1, protein TB427.07.2340 40S RIBOSOMAL PROTEIN S15, PUTATIVE",0.87
same,fold change,"relative to vehicle control = 1, protein TB427.07.2570 MRNA […], PUTATIVE",0.63
same,fold change,"relative to vehicle control = 1, protein TB427.07.4180 FATTY ACID ELONGASE, PUTATIVE",0.92
same,fold change,"relative to vehicle control = 1, protein TB427.07.7500 THYMINE-7-HYDROXYLASE, PUTATIVE",0.88
same,fold change,"relative to vehicle control = 1, protein TB427.08.3150 T-COMPLEX PROTEIN 1, GAMMA SUBUNIT, PUTATIVE",0.99
same,fold change,"relative to vehicle control = 1, protein TB427.08.3490 HY[…], CONSERVED",0.95
same,fold change,"relative to vehicle control = 1, protein TB427.08.5460 FLAGELLAR CALCIUM-BINDING PROTEIN",0.72
same,fold change,"relative to vehicle control = 1, protein TB427.08.6110 HY[…], CONSERVED",0.82
same,fold change,"relative to vehicle control = 1, protein TB427.10.11930 NAD OR NADP DEPENDENT OXIDOREDUCTASE, PUTATIVE",0.78
same,fold change,"relative to vehicle control = 1, protein TB427.10.12510 P-TYPE H+-ATPASE, PUTATIVE",1
same,fold change,"relative to vehicle control = 1, protein TB427.10.13110 DYNEIN LIGHT CHAIN, PUTATIVE",0.88
same,fold change,"relative to vehicle control = 1, protein TB427.10.13880 HY[…], CONSERVED",0.88
same,fold change,"relative to vehicle control = 1, protein TB427.10.14140 PYRUVATE KINASE 1",0.93
same,fold change,"relative to vehicle control = 1, protein TB427.10.14910 SA[…] GLYCOPROTEIN, PUTATIVE",0.83
same,fold change,"relative to vehicle control = 1, protein TB427.10.15180 […] PROTEIN, PUTATIVE",1.2
same,fold change,"relative to vehicle control = 1, protein TB427.10.2350 PYRUVATE DEH[…] E3 BINDING PROTEIN, PUTATIVE",1
same,fold change,"relative to vehicle control = 1, protein TB427.10.4940 NUCLEAR DBF2-RELATED KINASE",0.8
same,fold change,"relative to vehicle control = 1, protein TB427.10.7630 HY[…], CONSERVED",0.97
same,fold change,"relative to vehicle control = 1, protein TB427.10.9800 60S RIBOSOMAL PROTEIN L22",0.82
same,fold change,"relative to vehicle control = 1, protein TB927.10.13360 […] TU, PUTATIVE",0.96
same,fold change,"relative to vehicle control = 1, protein TB927.1.2330 BETA TUBULIN",0.96
same,fold change,"relative to vehicle control = 1, protein TB927.1.2400 ALPHA TUBULIN",0.96
same,fold change,"relative to vehicle control = 1, protein TB927.10.3280 60S RIBOSOMAL PROTEINS L38, PUTATIVE",0.99
same,fold change,"relative to vehicle control = 1, protein TB927.10.4180 TFIIF-[…] PHOSPHATASE, PUTATIVE",0.97
same,fold change,"relative to vehicle control = 1, protein TB927.10.4690 DYNEIN LIGHT CHAIN, PUTATIVE",0.9
same,fold change,"relative to vehicle control = 1, protein TB927.10.5330 40S RIBOSOMAL PROTEIN S18, PUTATIVE",0.74
same,fold change,"relative to vehicle control = 1, protein TB927.10.6670 DYNEIN LIGHT CHAIN, PUTATIVE",0.92
same,fold change,"relative to vehicle control = 1, protein TB927.2.2440 […]-ATPASE SUBUNIT 6",2.27
same,fold change,"relative to vehicle control = 1, protein TB927.3.1120 GTP-BINDING NUCLEAR PROTEIN RTB2, PUTATIVE",0.9
same,fold change,"relative to vehicle control = 1, protein TB927.3.3490 HIGH MOBILITY GROUP PROTEIN, PUTATIVE",0.89
same,fold change,"relative to vehicle control = 1, protein TB927.3.4360 40S RIBOSOMAL PROTEIN S15A, PUTATIVE",1.3
same,fold change,"relative to vehicle control = 1, protein TB927.4.4650 […] SYNTHASE, PUTATIVE",0.72
same,fold change,"relative to vehicle control = 1, protein TB927.5.1930 HY[…], CONSERVED",0.83
same,fold change,"relative to vehicle control = 1, protein TB927.6.4140 PAR[…] COMPONENT, PUTATIVE",0.9
same,fold change,"relative to vehicle control = 1, protein TB927.7.2500 […] SUBUNIT 1",0.91
same,fold change,"relative to vehicle control = 1, protein TB927.7.4500 HY[…], CONSERVED",0.87
same,fold change,"relative to vehicle control = 1, protein TB927.8.1510 ATP-DEPENDENT DEAD/H RNA HELICASE, PUTATIVE",1
same,fold change,"vs vehicle control, protein TB09.160.3710 PRO[…] NUCLEAR ANTIGEN (PCNA), PUTATIVE",0.94
same,fold change,"vs vehicle control, protein TB11.01.4370 HY[…], CONSERVED",0.98
same,fold change,"vs vehicle control, protein TB427TMP.01.8510 T-COMPLEX PROTEIN 1, ALPHA SUBUNIT, PUTATIVE",0.9
same,fold change,"vs vehicle control, protein TB427.01.1670 HY[…], CONSERVED",0.93
same,fold change,"vs vehicle control, protein TB427.03.4750 AMINOPEPTIDASE, PUTATIVE",0.96
same,fold change,"vs vehicle control, protein TB427.05.3170 RIBOSE-PHOSPHATE PYROPHOSPHOKINASE, PUTATIVE",0.92
same,fold change,"vs vehicle control, protein TB427.06.1070 HY[…], CONSERVED",0.95
same,fold change,"vs vehicle control, protein TB427.06.4890 S-ADENOSYL[…], PUTATIVE",0.98
same,fold change,"vs vehicle control, protein TB427.08.3660 PROTEIN TRANSPORT PROTEIN SEC23",0.95
same,fold change,"vs vehicle control, protein TB427.10.10980 HEAT SHOCK PROTEIN 83",0.99
same,fold change,"vs vehicle control, protein TB427.10.11760 PUMILIO/PUF RNA BINDING PROTEIN 6",0.91
same,fold change,"vs vehicle control, protein TB427.10.14550 ATP-DEPENDENT DEAD/H RNA HELICASE, PUTATIVE",0.99
same,fold change,"vs vehicle control, protein TB427.10.2290 CHAPERONE PROTEIN DNAJ, PUTATIVE",0.93
same,fold change,"vs vehicle control, protein TB927.5.1630 HY[…], CONSERVED",0.91
same,fold change,"vs vehicle control, protein TB927.6.4980 40S RIBOSOMAL PROTEIN S14",1.1
